Here are results for 2 molecules from ChEMBL document CHEMBL4507319 (2021).

For experiment [1], the target named is T1, Serine/threonine-protein kinase NLK (Homo sapiens) (UniProt Q9UBE8).
T1 sequence (whole entry): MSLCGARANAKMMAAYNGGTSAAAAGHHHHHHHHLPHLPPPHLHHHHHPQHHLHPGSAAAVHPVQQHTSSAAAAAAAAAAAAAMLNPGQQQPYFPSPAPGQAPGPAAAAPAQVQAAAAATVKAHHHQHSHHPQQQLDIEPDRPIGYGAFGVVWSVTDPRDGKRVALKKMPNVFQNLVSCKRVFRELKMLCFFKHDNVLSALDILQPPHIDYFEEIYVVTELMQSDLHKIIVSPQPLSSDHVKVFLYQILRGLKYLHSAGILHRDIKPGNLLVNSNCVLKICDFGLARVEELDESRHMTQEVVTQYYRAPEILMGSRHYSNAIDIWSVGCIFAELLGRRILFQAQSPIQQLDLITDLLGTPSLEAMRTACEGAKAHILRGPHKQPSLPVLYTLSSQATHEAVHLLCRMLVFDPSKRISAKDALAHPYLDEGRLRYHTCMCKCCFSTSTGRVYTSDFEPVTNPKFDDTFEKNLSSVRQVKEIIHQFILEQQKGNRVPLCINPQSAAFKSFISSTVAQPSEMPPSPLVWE
The experiment in a line: NLK(h) Eurofins kinase panel. As to conditions: Compound concentration 1.0 uM.

Experiment [2] has as its target T2, Homeodomain-interacting protein kinase 4 (Homo sapiens) (UniProt Q8NE63).
T2 sequence (whole entry): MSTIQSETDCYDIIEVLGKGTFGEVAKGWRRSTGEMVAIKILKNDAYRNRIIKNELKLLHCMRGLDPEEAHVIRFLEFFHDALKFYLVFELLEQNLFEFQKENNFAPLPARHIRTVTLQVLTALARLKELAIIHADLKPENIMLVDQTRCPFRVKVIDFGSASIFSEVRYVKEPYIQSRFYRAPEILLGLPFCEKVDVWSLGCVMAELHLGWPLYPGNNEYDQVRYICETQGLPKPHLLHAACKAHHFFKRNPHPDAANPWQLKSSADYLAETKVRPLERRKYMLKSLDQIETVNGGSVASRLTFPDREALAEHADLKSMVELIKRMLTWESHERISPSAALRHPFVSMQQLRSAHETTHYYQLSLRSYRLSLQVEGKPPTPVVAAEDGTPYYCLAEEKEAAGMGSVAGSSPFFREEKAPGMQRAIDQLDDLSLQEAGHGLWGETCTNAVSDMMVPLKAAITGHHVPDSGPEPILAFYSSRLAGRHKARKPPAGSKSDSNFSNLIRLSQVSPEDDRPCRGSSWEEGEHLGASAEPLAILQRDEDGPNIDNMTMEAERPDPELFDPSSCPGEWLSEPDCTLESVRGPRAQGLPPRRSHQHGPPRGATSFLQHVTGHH
The experiment can be described thus: HIPK4(h) Eurofins kinase panel. The settings on record: Compound concentration 1.0 uM.

Experiment [3] addresses Homeodomain-interacting protein kinase 3 (Homo sapiens) (UniProt Q9H422). The experiment in a line: HIPK3(h) Eurofins kinase panel. The settings on record: Compound concentration 1.0 uM.
In experiment [4] the target is Serine/threonine-protein kinase tousled-like 2 (Homo sapiens) (UniProt Q86UE8). The experiment in a line: TLK2(h) Eurofins kinase panel. The settings on record: Compound concentration 1.0 uM.
Sequence of Serine/threonine-protein kinase tousled-like 2 (Homo sapiens) (Q86UE8 whole entry, looked up): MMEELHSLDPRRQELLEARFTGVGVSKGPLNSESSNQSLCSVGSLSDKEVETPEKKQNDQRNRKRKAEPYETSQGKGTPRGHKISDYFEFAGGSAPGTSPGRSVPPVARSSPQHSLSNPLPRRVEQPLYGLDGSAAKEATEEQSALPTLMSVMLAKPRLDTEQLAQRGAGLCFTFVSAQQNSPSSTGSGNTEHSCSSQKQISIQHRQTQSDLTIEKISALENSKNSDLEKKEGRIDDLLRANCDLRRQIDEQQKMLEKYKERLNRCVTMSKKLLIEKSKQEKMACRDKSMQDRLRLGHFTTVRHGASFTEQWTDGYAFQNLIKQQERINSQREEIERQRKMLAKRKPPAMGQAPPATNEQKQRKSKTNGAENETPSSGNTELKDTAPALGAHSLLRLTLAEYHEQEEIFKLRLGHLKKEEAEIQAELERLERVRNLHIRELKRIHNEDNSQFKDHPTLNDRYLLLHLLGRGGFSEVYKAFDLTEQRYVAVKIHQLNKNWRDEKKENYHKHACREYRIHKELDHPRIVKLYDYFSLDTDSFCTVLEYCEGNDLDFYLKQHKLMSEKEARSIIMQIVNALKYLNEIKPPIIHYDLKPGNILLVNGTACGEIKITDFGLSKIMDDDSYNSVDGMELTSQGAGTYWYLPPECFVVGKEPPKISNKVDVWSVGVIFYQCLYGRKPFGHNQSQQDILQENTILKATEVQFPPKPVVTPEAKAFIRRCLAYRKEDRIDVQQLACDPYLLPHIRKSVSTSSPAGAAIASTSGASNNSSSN
The target of experiment [5] is Fibroblast growth factor receptor 1 (Homo sapiens) (UniProt P11362). The experiment in a line: FGFR1(h) Eurofins kinase panel. As to conditions: Compound concentration 1.0 uM.
The target in experiment [6] is BDNF/NT-3 growth factors receptor (Homo sapiens) (UniProt Q16620). The experiment in a line: TrkB(h) Eurofins kinase panel. The settings on record: Compound concentration 1.0 uM.
Sequence of BDNF/NT-3 growth factors receptor (Homo sapiens) (Q16620 32-822 limits assumed): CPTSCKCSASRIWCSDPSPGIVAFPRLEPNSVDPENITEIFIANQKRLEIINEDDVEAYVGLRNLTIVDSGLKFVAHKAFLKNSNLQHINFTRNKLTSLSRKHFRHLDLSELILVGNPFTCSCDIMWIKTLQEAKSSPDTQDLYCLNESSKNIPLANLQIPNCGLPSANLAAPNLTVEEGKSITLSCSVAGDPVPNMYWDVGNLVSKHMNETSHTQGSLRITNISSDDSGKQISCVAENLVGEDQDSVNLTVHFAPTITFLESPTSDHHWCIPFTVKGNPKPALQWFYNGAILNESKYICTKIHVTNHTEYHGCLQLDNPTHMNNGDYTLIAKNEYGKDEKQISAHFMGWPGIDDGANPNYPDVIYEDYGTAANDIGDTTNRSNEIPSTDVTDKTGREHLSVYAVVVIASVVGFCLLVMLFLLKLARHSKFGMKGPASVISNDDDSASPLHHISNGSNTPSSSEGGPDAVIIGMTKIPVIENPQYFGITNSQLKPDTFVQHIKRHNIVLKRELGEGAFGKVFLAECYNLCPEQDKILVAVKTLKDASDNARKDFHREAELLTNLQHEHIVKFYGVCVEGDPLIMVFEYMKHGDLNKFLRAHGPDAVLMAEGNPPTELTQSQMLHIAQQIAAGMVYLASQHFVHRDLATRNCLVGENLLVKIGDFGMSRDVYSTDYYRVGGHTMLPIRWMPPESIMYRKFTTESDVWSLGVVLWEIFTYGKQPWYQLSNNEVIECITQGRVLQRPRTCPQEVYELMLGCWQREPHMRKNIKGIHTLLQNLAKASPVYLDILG
Experiment [7] concerns the target Mitogen-activated protein kinase kinase kinase kinase 4 (Homo sapiens) (UniProt O95819). The experiment can be described thus: MAP4K4(h) Eurofins kinase panel. As to conditions: Compound concentration 1.0 uM.
Experiment [8] concerns the target Mitogen-activated protein kinase 1 (Homo sapiens) (UniProt P28482). The experiment in a line: MAPK2(h) Eurofins kinase panel. The settings on record: Compound concentration 1.0 uM.
Experiment [9] deals with Myosin light chain kinase 2, skeletal/cardiac muscle (Homo sapiens) (UniProt Q9H1R3). The experiment can be described thus: MYLK2(h) Eurofins kinase panel. As to conditions: Compound concentration 1.0 uM.
Experiment [10] deals with Ephrin type-A receptor 5 (Homo sapiens) (UniProt P54756). The experiment in a line: EphA5(h) Eurofins kinase panel. As to conditions: Compound concentration 1.0 uM.
Sequence of Ephrin type-A receptor 5 (Homo sapiens) (P54756 whole entry): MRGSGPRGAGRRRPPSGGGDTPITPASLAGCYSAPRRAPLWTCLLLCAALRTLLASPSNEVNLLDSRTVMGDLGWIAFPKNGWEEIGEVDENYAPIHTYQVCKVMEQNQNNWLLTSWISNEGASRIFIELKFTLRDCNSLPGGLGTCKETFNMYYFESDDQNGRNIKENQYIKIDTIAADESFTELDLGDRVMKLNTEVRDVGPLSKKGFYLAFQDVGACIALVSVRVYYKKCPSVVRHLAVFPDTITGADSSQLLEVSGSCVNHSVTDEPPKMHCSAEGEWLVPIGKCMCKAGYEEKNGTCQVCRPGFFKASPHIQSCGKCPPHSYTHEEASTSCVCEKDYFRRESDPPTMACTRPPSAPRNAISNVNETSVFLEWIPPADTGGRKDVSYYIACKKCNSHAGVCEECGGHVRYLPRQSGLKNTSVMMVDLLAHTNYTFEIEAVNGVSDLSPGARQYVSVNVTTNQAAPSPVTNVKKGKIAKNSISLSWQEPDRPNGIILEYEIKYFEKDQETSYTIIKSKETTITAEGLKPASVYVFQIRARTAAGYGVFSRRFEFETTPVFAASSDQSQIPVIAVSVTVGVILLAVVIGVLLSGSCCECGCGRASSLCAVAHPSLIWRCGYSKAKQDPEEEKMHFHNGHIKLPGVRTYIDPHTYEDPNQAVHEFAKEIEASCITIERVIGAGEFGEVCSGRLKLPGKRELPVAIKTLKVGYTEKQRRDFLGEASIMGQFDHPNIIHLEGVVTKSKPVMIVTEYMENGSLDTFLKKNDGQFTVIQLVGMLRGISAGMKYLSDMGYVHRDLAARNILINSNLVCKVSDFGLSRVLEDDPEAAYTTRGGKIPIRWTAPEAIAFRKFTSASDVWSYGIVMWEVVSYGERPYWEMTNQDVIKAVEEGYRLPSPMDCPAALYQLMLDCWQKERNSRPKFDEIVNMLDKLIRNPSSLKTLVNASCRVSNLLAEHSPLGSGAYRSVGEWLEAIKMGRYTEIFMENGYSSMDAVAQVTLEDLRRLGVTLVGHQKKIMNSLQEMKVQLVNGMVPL
The test system of experiment [11] is A2780. The experiment in a line: A2780 cell line Proliferation assay. It is filed as functional, Homo sapiens. The settings on record: time 3 day.
In experiment [12] the target is Serine/threonine-protein kinase pim-1 (Homo sapiens) (UniProt P11309). The experiment in a line: Pim-1(h) Eurofins kinase panel. The settings on record: Compound concentration 1.0 uM.
Experiment [13] concerns the target Calcium/calmodulin-dependent protein kinase type 1 (Homo sapiens) (UniProt Q14012). The experiment in a line: CaMKI(h) Eurofins kinase panel. The settings on record: Compound concentration 1.0 uM.
Experiment [14] has as its target Mitogen-activated protein kinase 8 (Homo sapiens) (UniProt P45983). The experiment can be described thus: JNK1alpha1(h) Eurofins kinase panel. As to conditions: Compound concentration 1.0 uM.
Experiment [15] deals with T3, Serine/threonine-protein kinase BRSK2 (Homo sapiens) (UniProt Q8IWQ3).
T3 sequence (whole entry): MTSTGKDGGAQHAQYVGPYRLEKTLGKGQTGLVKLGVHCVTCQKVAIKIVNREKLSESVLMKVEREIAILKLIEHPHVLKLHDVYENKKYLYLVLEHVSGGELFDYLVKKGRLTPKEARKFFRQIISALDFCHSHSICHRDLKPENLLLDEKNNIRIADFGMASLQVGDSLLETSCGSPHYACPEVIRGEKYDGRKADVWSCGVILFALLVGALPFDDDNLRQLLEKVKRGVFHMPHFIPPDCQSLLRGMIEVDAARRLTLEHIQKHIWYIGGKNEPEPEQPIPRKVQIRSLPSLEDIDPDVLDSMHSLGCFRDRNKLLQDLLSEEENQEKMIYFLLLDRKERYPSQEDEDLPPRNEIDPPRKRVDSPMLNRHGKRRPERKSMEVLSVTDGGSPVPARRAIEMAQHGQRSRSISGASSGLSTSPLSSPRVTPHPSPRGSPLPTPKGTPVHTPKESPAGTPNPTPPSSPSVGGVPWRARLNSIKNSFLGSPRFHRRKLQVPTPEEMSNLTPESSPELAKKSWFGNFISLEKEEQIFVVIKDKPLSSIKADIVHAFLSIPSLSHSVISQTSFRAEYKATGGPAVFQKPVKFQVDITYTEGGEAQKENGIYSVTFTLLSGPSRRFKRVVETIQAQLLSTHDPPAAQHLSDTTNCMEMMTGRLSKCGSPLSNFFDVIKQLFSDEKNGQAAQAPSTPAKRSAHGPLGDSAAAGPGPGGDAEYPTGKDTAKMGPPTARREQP
The experiment in a line: BrSK2(h) Eurofins kinase panel. As to conditions: Compound concentration 1.0 uM.

In experiment [16] the target is Fibroblast growth factor receptor 3 (Homo sapiens) (UniProt P22607). The experiment can be described thus: FGFR3(h) Eurofins kinase panel. The settings on record: Compound concentration 1.0 uM.
Experiment [17] deals with Eukaryotic translation initiation factor 2-alpha kinase 3 (Homo sapiens) (UniProt Q9NZJ5). The experiment in a line: PEK(h) Eurofins kinase panel. As to conditions: Compound concentration 1.0 uM.
The subject of experiment [18] is A-375. The experiment can be described thus: A375 cell line Proliferation assay. It counts as functional, Homo sapiens. As to conditions: time 3 day.
Experiment [19] is described as follows: GPCRScan assay: inhibition of GABA/PBR. More on the design: species or system Rattus norvegicus; radioligand conc. used [nm] 0.3 – 2.0, parental cells brain tissue.
Experiment [20] deals with Histamine H2 receptor (Homo sapiens) (UniProt P25021). As to conditions: Compound concentration 10.0 uM.
Sequence of Histamine H2 receptor (Homo sapiens) (P25021 whole entry): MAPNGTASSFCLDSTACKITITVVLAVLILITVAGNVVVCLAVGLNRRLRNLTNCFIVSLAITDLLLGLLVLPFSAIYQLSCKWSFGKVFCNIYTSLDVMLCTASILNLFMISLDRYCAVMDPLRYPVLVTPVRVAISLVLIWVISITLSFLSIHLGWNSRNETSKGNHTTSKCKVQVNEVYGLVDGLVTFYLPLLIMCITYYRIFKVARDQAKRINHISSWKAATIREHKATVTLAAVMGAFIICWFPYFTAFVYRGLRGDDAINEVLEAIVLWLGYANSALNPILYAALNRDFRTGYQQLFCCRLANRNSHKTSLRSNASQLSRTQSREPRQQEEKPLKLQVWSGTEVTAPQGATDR
The target in experiment [21] is GABA-A receptor; anion channel (Rattus norvegicus) (UniProt O09028+P15431+P18506+P18508+P19969+P20236+P23574+P23576+P28471+P28473+P30191+P62813+P63079+P63138+Q91ZM7+Q9ES14). As to conditions: Compound concentration 10.0 uM.

Structures are written as SMILES. Where only a bound is given, the exact number is not on record here.

Sequence of Mitogen-activated protein kinase kinase kinase kinase 4 (Homo sapiens) (O95819 2-1239 limits assumed): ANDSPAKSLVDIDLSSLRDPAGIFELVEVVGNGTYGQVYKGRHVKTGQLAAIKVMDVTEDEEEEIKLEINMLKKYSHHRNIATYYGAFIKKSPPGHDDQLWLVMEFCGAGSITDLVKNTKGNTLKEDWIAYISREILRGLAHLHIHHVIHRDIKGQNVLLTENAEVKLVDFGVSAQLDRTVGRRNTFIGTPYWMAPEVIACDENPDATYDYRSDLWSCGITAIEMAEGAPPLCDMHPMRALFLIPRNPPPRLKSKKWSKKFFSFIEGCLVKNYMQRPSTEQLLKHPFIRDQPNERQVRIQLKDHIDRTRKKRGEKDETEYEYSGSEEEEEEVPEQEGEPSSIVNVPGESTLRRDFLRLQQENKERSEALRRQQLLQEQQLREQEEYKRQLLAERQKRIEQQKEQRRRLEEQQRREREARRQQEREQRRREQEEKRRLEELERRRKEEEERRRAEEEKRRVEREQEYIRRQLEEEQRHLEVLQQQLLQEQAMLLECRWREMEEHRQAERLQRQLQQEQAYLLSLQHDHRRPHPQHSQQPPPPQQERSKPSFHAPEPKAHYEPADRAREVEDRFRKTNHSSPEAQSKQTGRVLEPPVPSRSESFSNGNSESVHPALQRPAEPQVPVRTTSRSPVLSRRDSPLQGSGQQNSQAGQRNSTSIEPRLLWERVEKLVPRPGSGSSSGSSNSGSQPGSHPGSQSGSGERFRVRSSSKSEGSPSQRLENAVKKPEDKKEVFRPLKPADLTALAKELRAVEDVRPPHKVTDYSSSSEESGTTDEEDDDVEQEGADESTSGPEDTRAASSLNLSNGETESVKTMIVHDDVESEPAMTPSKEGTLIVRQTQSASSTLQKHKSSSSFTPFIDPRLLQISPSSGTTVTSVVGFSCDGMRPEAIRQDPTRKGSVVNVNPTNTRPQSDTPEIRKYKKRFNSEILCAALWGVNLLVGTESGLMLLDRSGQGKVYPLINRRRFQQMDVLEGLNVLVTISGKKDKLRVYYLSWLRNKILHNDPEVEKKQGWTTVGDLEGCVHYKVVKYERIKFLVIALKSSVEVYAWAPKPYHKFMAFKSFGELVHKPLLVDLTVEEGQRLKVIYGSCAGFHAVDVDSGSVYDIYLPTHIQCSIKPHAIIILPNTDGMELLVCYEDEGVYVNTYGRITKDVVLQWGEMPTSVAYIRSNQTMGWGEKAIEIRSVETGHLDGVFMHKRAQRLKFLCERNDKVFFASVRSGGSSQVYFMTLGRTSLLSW
Sequence of Calcium/calmodulin-dependent protein kinase type 1 (Homo sapiens) (Q14012 whole entry, looked up): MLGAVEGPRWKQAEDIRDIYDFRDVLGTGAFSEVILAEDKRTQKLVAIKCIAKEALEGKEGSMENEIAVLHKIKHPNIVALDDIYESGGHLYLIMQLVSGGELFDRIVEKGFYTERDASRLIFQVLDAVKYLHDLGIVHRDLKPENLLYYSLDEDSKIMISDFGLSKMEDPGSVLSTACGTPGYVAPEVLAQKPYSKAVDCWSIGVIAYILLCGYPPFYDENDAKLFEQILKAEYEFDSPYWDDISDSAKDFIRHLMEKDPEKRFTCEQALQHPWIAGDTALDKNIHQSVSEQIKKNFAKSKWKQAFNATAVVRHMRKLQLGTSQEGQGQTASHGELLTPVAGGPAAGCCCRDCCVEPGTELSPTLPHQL
Sequence of Mitogen-activated protein kinase 1 (Homo sapiens) (P28482 whole entry): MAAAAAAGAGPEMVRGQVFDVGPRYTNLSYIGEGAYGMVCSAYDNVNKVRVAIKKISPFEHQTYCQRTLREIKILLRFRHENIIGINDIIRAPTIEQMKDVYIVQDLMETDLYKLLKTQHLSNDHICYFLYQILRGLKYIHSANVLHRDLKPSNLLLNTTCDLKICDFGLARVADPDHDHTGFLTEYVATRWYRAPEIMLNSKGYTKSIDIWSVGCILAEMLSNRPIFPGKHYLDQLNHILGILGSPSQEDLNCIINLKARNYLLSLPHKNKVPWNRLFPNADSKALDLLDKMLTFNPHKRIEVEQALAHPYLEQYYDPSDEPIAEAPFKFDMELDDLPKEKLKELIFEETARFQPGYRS

In the case of `CCc1ccccc1C(=O)Nc1n[nH]c2c(C)c(F)c(C3C(C#N)=C(C)N(C)C(C)=C3C#N)cc12` [BAY-3827], the % residual kinase activity in [1] was 91%; in experiment [2], 105%; in experiment [3], 100%; in experiment [4] it was 96%; in experiment [5] it was 61%; in experiment [6], 103%. In addition, the % residual kinase activity in experiment [7] was 91%; in experiment [8], 102%; in experiment [9], 89%; in experiment [10], 89%; in experiment [12] it was 119%; in experiment [13], 93%. Further, the % residual kinase activity in experiment [14] is 72%; in [15] it was 34%; in [16], 99%; in [17] it was 101%. Besides, the “Cell Proliferation IC50” value was over 33 µM in [11] and 22.8 µM in experiment [18].

Turning to `CC1=C(C#N)C(c2ccc3c(c2)c(NC(=O)c2ccccc2C)nn3C)C(C#N)=C(C)N1` [BAY-974], in experiment [19], the Ki is 0.021 µM and the pKi is 7.69. Further, in [20], the inhibition was 8.7%. Moreover, the inhibition in experiment [21] was -1.23%.

A word on the Ki: it is a measure of affinity in units of concentration, obtained from inhibition or displacement. Usually pKi stands for the negative decadic logarithm of the Ki, by convention in mol/L. In general, inhibition refers to the change of the read-out against control, counted positive when it falls.
